{"source": "ChEMBL document CHEMBL3272277", "about": "“Stereocontrolled glycosidation of daunomycinone. Synthesis and biological evaluation of 6-hydroxy-L-arabino analogues of antitumor anthracyclines” (J Med Chem, 1976)", "key": {"Mus musculus [1]": {"test_system": "Mus musculus", "assay": "Toxicity in mouse allografted with mouse Sarcoma 180 cells assessed as mortality at >5 mg/kg, ip on day 1 post challenge", "type": "organism-based", "details": "in vivo"}, "HeLa": {"test_system": "HeLa", "assay": "Cytotoxicity against human HeLa cells assessed as cloning efficiency after 8 hrs", "type": "functional", "details": "read-out: ID50 (the source's name)"}, "Mus musculus [2]": {"test_system": "Mus musculus", "assay": "Toxicity in mouse allografted with mouse Sarcoma 180 cells assessed as mortality at 2 mg/kg, ip on day 1 post challenge", "type": "organism-based", "set-up": "dose 2 mg/kg, route intraperitoneal", "details": "in vivo"}, "MEF": {"test_system": "MEF", "assay": "Inhibition of Murine sarcoma virus (Moloney) foci formation in MEF after 72 hrs", "type": "functional", "details": "Mus musculus, read-out: ID50 (the source's name)"}, "Mus musculus [3]": {"test_system": "Mus musculus", "assay": "Toxicity in mouse allografted with mouse Sarcoma 180 cells assessed as mortality at 10 mg/kg, ip on day 1 post challenge", "type": "organism-based", "set-up": "dose 10 mg/kg, route intraperitoneal", "details": "in vivo"}, "[4]": {"assay": "Antiproliferative activity against MEF after 72 hrs", "type": "cell-based", "details": "mouse, MEF cells; read-out: ID50"}, "Sarcoma-180 [5]": {"test_system": "Sarcoma-180", "assay": "Antitumor activity against mouse Sarcoma 180 cells allografted in mouse assessed as average survival time at 10 mg/kg, ip on day 1 post challenge relative to untreated control", "type": "functional", "details": "route intraperitoneal"}, "Sarcoma-180 [6]": {"test_system": "Sarcoma-180", "assay": "Antitumor activity against mouse Sarcoma 180 cells allografted in mouse assessed as average survival time at 2 mg/kg, ip on day 1 post challenge relative to untreated control", "type": "functional", "details": "route intraperitoneal"}}}
{"smiles": "COc1cccc2c1C(=O)c1c(O)c3c(c(O)c1C2=O)C[C@@](O)(C(=O)CO)C[C@@H]3O[C@H]1C[C@H](N)[C@@H](O)[C@H](C)O1", "note": "[EPIRUBICIN]", "values": [{"measurement": "Activity", "setting": "Mus musculus [1]", "result": "Toxic"}]}
{"smiles": "COc1cccc2c1C(=O)c1c(O)c3c(c(O)c1C2=O)C[C@@](O)(C(C)=O)C[C@@H]3O[C@H]1C[C@H](N)[C@@H](O)[C@H](CO)O1.Cl", "values": [{"measurement": "IC50", "setting": "HeLa", "result": "> 10", "unit": "µg/mL"}, {"measurement": "Activity", "setting": "Mus musculus [2]", "result": "Non-toxic"}, {"measurement": "IC50", "setting": "MEF", "result": 0.1, "unit": "µg/mL"}, {"measurement": "Activity", "setting": "Mus musculus [3]", "result": "Non-toxic"}, {"measurement": "GI50 at 72 h", "setting": "[4]", "result": 0.256, "unit": "µg/mL"}, {"measurement": "T/C", "setting": "Sarcoma-180 [5]", "result": 167, "unit": "%"}]}
{"smiles": "COc1cccc2c1C(=O)c1c(O)c3c(c(O)c1C2=O)C[C@@](O)(C(=O)CO)C[C@@H]3O[C@H]1C[C@H](N)[C@H](O)[C@H](C)O1.Cl", "note": "[DOXORUBICIN HYDROCHLORIDE]", "values": [{"measurement": "IC50", "setting": "HeLa", "result": 0.11, "unit": "µg/mL"}, {"measurement": "T/C", "setting": "Sarcoma-180 [6]", "result": 210, "unit": "%"}, {"measurement": "IC50", "setting": "MEF", "result": 0.0025, "unit": "µg/mL"}, {"measurement": "GI50 at 72 h", "setting": "[4]", "result": 0.007, "unit": "µg/mL"}]}
{"smiles": "COc1cccc2c1C(=O)c1c(O)c3c(c(O)c1C2=O)C[C@@](O)(C(=O)CO)C[C@@H]3O[C@H]1C[C@H](N)[C@@H](O)[C@H](CO)O1", "values": [{"measurement": "IC50", "setting": "HeLa", "result": 1, "unit": "µg/mL"}, {"measurement": "Activity", "setting": "Mus musculus [2]", "result": "Non-toxic"}, {"measurement": "IC50", "setting": "MEF", "result": 0.025, "unit": "µg/mL"}, {"measurement": "Activity", "setting": "Mus musculus [3]", "result": "Non-toxic"}, {"measurement": "GI50 at 72 h", "setting": "[4]", "result": 0.05, "unit": "µg/mL"}, {"measurement": "T/C", "setting": "Sarcoma-180 [5]", "result": 162, "unit": "%"}]}
{"smiles": "COc1cccc2c1C(=O)c1c(O)c3c(c(O)c1C2=O)C[C@@](O)(C(C)=O)C[C@@H]3O[C@H]1C[C@H](N)[C@@H](O)[C@H](C)O1", "values": [{"measurement": "Activity", "setting": "Mus musculus [1]", "result": "Toxic"}]}
{"smiles": "COc1cccc2c1C(=O)c1c(O)c3c(c(O)c1C2=O)C[C@@](O)(C(C)=O)C[C@@H]3O[C@H]1C[C@H](N)[C@H](O)[C@H](C)O1", "note": "[DAUNORUBICIN]", "values": [{"measurement": "IC50", "setting": "HeLa", "result": 0.013, "unit": "µg/mL"}, {"measurement": "T/C", "setting": "Sarcoma-180 [6]", "result": 192, "unit": "%"}, {"measurement": "IC50", "setting": "MEF", "result": 0.0055, "unit": "µg/mL"}, {"measurement": "GI50 at 72 h", "setting": "[4]", "result": 0.009, "unit": "µg/mL"}]}
